Assay results reported in patent US20030134842A1, “METHODS FOR THE TREATMENT OR PREVENTION OF INFLAMMATORY DISEASES CHARACTERIZED BY ABNORMAL CELL PROLIFERATION” (priority 1997, published 2003).
Like-named read-outs stand apart in the source and are kept apart here.

Tests used:
Type in all cases: cell-based
[1] = tested on: NIH 3T3 mouse fibroblast cells; experiment: Mitogenic assay (mitogen-induced cell proliferation); settings: for IC50: mitogen-induced cell proliferation
[2] = target: T1, Ca2+-activated potassium channel (Gardos channel) of erythrocytes (Homo sapiens, UniProt O15554); experiment: Gardos channel assay; settings: for inhibition at 10 µM: 10 μM compound
T1 construct: endogenous in cells; host or cells: erythrocytes

HeLa = experiment: SRB antiproliferative assay HeLa; settings: Homo sapiens; HeLa (Cervical), 5% FCS/5 day incubation; read-out: Test Compound IC50
Source text: (§1) The cells were passaged using Trypsin (Gibco).

CaSki = experiment: SRB antiproliferative assay CaSki; settings: Homo sapiens, Ca-Ski; CaSki (Cervical), 5% FCS/5 day incubation; read-out: Test Compound IC50
Source text: as §1

MDA-MB-23 = experiment: SRB antiproliferative assay MDA-MB-23
Source text: as §1

MCF7 = experiment: SRB antiproliferative assay MCF7; settings: Homo sapiens
Source text: as §1

A549 = experiment: SRB antiproliferative assay A549; settings: Homo sapiens
Source text: as §1

HTB174 = experiment: SRB antiproliferative assay HTB174; settings: HTB174 (Lung), 5% FCS/5 day incubation; read-out: Test Compound IC50
Source text: as §1

HEPG2 = experiment: SRB antiproliferative assay HEPG2; settings: Homo sapiens
Source text: as §1

DU-145 = experiment: SRB antiproliferative assay DU-145; settings: Homo sapiens; DU-145 (Prostate), 5% FCS/5 day incubation; read-out: Test Compound IC50
Source text: as §1

SK-MEL-28 = experiment: SRB antiproliferative assay SK-MEL-28; settings: Homo sapiens; SK-MEL-28 (Melanoma), 5% FCS/5 day incubation; read-out: Test Compound IC50
Source text: as §1

MMRU = experiment: SRB antiproliferative assay MMRU; settings: Homo sapiens
Source text: as §1

HT29 = experiment: SRB antiproliferative assay HT29; settings: Homo sapiens
Source text: as §1

HCT-15 = experiment: SRB antiproliferative assay HCT-15; settings: Homo sapiens; HCT-15 (Colon), 5% FCS/5 day incubation; read-out: Test Compound IC50
Source text: as §1

ACHN = experiment: SRB antiproliferative assay ACHN; settings: Homo sapiens; ACHN (Renal), 5% FCS/5 day incubation; read-out: Test Compound IC50
Source text: as §1

U118MG = experiment: SRB antiproliferative assay U118MG; settings: Homo sapiens, U-118-MG
Source text: as §1

SK-OV-3 = experiment: SRB antiproliferative assay SK-OV-3; settings: Homo sapiens; SK-OV-3 (Ovary), 5% FCS/5 day incubation; read-out: Test Compound IC50
Source text: as §1

HUVEC = experiment: SRB assay normal cells HUVEC; settings: HUVEC (Normal human), 5% FCS/5 day incubation; read-out: Test Compound IC50
Source text: as §1

GM = experiment: SRB assay normal cells GM; settings: GM (Normal human), 5% FCS/5 day incubation; read-out: Test Compound IC50
Source text: as §1

3T3 = experiment: SRB assay normal cells 3T3; settings: NIH3T3; 3T3 (Normal mouse), 5% FCS/5 day incubation; read-out: Test Compound IC50
Source text: as §1

L929 = experiment: SRB assay normal cells L929; settings: L929 (Normal mouse), 5% FCS/5 day incubation; read-out: Test Compound IC50
Source text: as §1

[3] = Mus musculus, NIH3T3, NIH 3T3 mouse fibroblast cells
[4] = MDA-MB-23 (Breast), 5% FCS/5 day incubation, read-out: Test Compound IC50
[5] = MCF7 (Breast), 5% FCS/5 day incubation, read-out: Test Compound IC50
[6] = MCF7, 5% FCS/3 days, read-out: Test Compound IC50 Value in Cell Lines
[7] = A549, A549 (Lung), 5% FCS/5 day incubation, read-out: Test Compound IC50
[8] = A549, A549, 5% FCS/3 days, read-out: Test Compound IC50 Value in Cell Lines
[9] = HEPG2 (Hepatocel), 5% FCS/5 day incubation, read-out: Test Compound IC50
[10] = HEPG2, 5% FCS/3 days, read-out: Test Compound IC50 Value in Cell Lines
[11] = MMRU (Melanoma), 5% FCS/5 day incubation, read-out: Test Compound IC50
[12] = MMRU, 5% FCS/3 days, read-out: Test Compound IC50 Value in Cell Lines
[13] = HT-29, HT29 (Colon), 5% FCS/5 day incubation, read-out: Test Compound IC50
[14] = HT-29, HT29, 5% FCS/3 days, read-out: Test Compound IC50 Value in Cell Lines
[15] = U118MG (CNS), 5% FCS/5 day incubation, read-out: Test Compound IC50
[16] = U118MG, 5% FCS/3 days, read-out: Test Compound IC50 Value in Cell Lines
[17] = MDA-MB-23, read-out: Test Compound IC50
[18] = A549 (Lung), 5% FCS/5 day incubation, read-out: Test Compound IC50

T1 sequence (O15554 whole entry): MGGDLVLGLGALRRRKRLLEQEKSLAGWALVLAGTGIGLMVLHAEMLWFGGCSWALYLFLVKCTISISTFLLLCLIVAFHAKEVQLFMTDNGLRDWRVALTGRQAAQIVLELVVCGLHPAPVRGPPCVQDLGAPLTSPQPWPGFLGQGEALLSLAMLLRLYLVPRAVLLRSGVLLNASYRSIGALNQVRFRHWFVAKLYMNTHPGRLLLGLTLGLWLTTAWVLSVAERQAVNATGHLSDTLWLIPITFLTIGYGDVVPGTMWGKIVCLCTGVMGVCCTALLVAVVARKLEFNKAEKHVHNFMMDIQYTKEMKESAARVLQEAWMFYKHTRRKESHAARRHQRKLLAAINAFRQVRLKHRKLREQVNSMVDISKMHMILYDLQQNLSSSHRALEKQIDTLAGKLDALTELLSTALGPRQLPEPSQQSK

Structure (SMILES)	inhibition at 10 µM [2] [%]	IC50 (HeLa) [nM]	IC50 (MCF7; [5]) [nM]	IC50 (MCF7; [6]) [nM]	IC50 (HEPG2; [9]) [nM]	IC50 (HEPG2; [10]) [nM]	IC50 (DU-145) [nM]	IC50 (SK-MEL-28) [nM]	IC50 (HT29; [13]) [nM]	IC50 (HT29; [14]) [nM]	IC50 (HCT-15) [nM]	IC50 (ACHN) [nM]	IC50 (CaSki) [nM]	IC50 (HTB174) [nM]	IC50 (MMRU; [11]) [nM]	IC50 (MMRU; [12]) [nM]	IC50 (U118MG; [15]) [nM]	IC50 (HUVEC) [nM]	IC50 (GM) [nM]	IC50 (L929) [nM]	also measured
O=C(c1ccc([N+](=O)[O-])cc1)N1Cc2ccccc2C(c2ccccc2Cl)c2ccccc21 (stereo not shown) [Compound 28, N-(4′-nitrobenzoyl)-11-(2′-chlorophenyl)-5,6-dihydro-11H-dibenz[b,e]azepine]	0	300	600	2100	300	< 1250	900	400	300	< 1250	400	700	500	100	200	< 1250	500	700	900	600	Mitogenic Assay Inhibition ([1]; 10 µM compound, NIH 3T3 mouse fibroblast cells): 99.0%; IC50 ([1]; NIH3T3, NIH 3T3 mouse fibroblast cells): 40 to 500 nM; IC50 (MDA-MB-23; [17]): 500 nM; IC50 (A549; [18]): 800 nM; IC50 (A549; A549, 5% FCS/3 days, read-out: Test Compound IC50 Value in Cell Lines): 1800 nM; IC50 (U118MG; [16]): 1300 nM; IC50 (SK-OV-3): > 1000 nM; IC50 (3T3): > 1000 nM
COc1cc([C@@H]2c3cc4c(cc3[C@@H](O[C@@H]3O[C@@H]5CO[C@@H](C)O[C@H]5[C@H](O)[C@H]3O)[C@H]3COC(=O)[C@H]23)OCO4)cc(OC)c1O [VP-16, Etoposide, reference compound]		< 1250	< 1250		< 1250		< 1250	< 1250	< 1250		1300	< 1250	1800	< 1250	< 1250		2200	< 1250	1400	< 1250	IC50 (MDA-MB-23; [17]): < 1250 nM; IC50 (MCF7; MCF7, 2% FCS/3 days, read-out: Test Compound IC50 Value in Cell Lines): < 2500 nM; IC50 (A549; [18]): < 1250 nM; IC50 (A549; A549, 2% FCS/3 days, read-out: Test Compound IC50 Value in Cell Lines): 2300 nM; IC50 (MMRU; MMRU, 2% FCS/3 days, read-out: Test Compound IC50 Value in Cell Lines): < 2500 nM; IC50 (HT29; HT-29, HT29, 2% FCS/3 days, read-out: Test Compound IC50 Value in Cell Lines): 20000 nM

The next lines start with results.

inhibition at 10 µM [2] [%]	IC50 (HeLa) [nM]	IC50 (MCF7; [5]) [nM]	IC50 (MCF7; [6]) [nM]	IC50 (HEPG2; [9]) [nM]	IC50 (HEPG2; [10]) [nM]	IC50 (DU-145) [nM]	IC50 (SK-MEL-28) [nM]	IC50 (HT29; [13]) [nM]	IC50 (HT29; [14]) [nM]	IC50 (HCT-15) [nM]	IC50 (ACHN) [nM]	Structure (SMILES)	IC50 (CaSki) [nM]	IC50 (HTB174) [nM]	IC50 (MMRU; [11]) [nM]	IC50 (MMRU; [12]) [nM]	IC50 (U118MG; [15]) [nM]	IC50 (HUVEC) [nM]	IC50 (GM) [nM]	IC50 (L929) [nM]	also measured
3	200	500	< 1250	400	< 1250	> 1000	700	400	< 1250	400	> 1000	COc1ccc(C(=O)N2Cc3ccccc3C(c3ccccc3Cl)c3ccccc32)cc1 (stereo not shown) [Compound 27]	900	300	200	< 1250	400	> 1000	> 1000	> 1000	IC50 [1, 3]: 2200 nM; IC50 [2]: > 10000 nM; IC50 (MDA-MB-23; [4]): > 1000 nM; IC50 (A549; [7]): 1100 nM; IC50 (A549; [8]): < 1250 nM; IC50 (U118MG; [16]): 1900 nM; IC50 (SK-OV-3): > 1000 nM; IC50 (3T3): > 1000 nM
14.6	500	1300	1600	900	< 1250	> 1000	600	600	< 1250	500	> 1000	COc1ccc2c(c1)CN(C(=O)c1ccc([N+](=O)[O-])cc1)c1ccc(Cl)cc1C2c1ccccc1Cl (stereo not shown) [Compound 30]	700	500	500	< 1250	800	> 1000	> 1000	> 1000	IC50 [1, 3]: 600 nM; IC50 [2]: > 10000 nM; IC50 (MDA-MB-23; [4]): 900 nM; IC50 (A549; [7]): 1500 nM; IC50 (A549; [8]): 1700 nM; IC50 (U118MG; [16]): < 1250 nM; IC50 (SK-OV-3): > 1000 nM; IC50 (3T3): > 1000 nM
12.3	200	700	< 1250	400	< 1250	900	300	200	< 1250	300	800	COc1cccc2c1C(c1ccccc1Cl)c1cc(Cl)ccc1N(C(=O)c1ccc([N+](=O)[O-])cc1)C2 (stereo not shown) [Compound 31]	500	200	200	< 1250	400	800	> 1000	900	IC50 [1, 3]: 400 nM; IC50 [2]: > 10000 nM; IC50 (MDA-MB-23; [4]): 400 nM; IC50 (A549; [7]): 600 nM; IC50 (A549; [8]): < 1250 nM; IC50 (U118MG; [16]): < 1250 nM; IC50 (SK-OV-3): 600 nM; IC50 (3T3): > 1000 nM
